This note sets out measurements from patent US20250205344A1, “2,4-DIOXOTETRAHYDROPYRIMIDINYL DERATIVES AS DEGRONS IN PROTACS” (GLAXOSMITHKLINE INTELLECTUAL PROPERTY DEVELOPMENT LIMITED, priority 2022, published 2025).

Structures are written as SMILES. Where a name gives a salt, the structure may show the parent alone.

This test addresses T1, Androgen Receptor (Homo sapiens, UniProt P10275, T878A).
T1 construct: the AR gene was modified, using CRISPR/Cas9 editing, so the expressed AR protein included an 11 amino acid HiBiT tag; endogenous in cells; host or cells: clonal LnCaP-derived line, AR gene edited by CRISPR/Cas9
As to the kind of experiment: Androgen Receptor Degradation Assay (Nano-Glo HiBiT). The format is cell-based. Particulars: LNCaP, 18 h, HiBiT-tagged AR in human LnCaP cells, read-out: mean asymptote max. In outline:
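LnCaP cells with CRISPR-knocked-in N-terminal HiBiT-tagged AR (10,000/well) treated 18 h at 37 °C with PROTACs over 11 threefold concentrations; lytic HiBiT luminescence normalised to DMSO (0%) and cell-free (100%) controls. Relative DC50 = 4-parameter fit inflection; absolute DC50 = 50% degradation interpolation; Dmax = maximum observed degradation.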
In general terms: With HiBiT, luminescence reflects the tagged protein that the partner subunit can reach.

T1 sequence (P10275 whole entry T878A): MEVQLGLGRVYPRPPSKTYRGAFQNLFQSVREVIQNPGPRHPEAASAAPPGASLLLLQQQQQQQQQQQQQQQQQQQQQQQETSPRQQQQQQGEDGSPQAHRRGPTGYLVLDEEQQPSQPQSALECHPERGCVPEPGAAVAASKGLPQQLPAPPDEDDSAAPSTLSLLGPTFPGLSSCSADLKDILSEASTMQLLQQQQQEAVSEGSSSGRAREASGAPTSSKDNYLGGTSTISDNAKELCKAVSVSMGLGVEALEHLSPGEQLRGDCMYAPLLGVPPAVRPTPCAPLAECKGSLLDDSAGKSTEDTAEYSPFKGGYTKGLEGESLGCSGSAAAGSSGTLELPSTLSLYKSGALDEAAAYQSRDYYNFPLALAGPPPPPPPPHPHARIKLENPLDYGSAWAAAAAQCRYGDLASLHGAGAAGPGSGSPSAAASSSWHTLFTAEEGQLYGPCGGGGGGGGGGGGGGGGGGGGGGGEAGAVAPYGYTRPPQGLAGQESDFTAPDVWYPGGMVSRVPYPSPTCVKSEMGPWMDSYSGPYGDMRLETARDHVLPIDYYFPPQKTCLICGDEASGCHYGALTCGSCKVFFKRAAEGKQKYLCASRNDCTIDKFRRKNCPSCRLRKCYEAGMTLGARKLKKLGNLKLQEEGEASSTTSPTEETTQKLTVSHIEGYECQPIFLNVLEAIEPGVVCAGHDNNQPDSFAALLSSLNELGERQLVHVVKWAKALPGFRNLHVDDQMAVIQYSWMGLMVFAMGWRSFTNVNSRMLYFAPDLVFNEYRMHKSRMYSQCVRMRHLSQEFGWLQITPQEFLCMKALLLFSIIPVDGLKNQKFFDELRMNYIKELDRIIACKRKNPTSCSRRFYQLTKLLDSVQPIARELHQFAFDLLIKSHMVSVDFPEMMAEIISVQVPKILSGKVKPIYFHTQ
T1 sequence (Q96SW2 whole entry partner): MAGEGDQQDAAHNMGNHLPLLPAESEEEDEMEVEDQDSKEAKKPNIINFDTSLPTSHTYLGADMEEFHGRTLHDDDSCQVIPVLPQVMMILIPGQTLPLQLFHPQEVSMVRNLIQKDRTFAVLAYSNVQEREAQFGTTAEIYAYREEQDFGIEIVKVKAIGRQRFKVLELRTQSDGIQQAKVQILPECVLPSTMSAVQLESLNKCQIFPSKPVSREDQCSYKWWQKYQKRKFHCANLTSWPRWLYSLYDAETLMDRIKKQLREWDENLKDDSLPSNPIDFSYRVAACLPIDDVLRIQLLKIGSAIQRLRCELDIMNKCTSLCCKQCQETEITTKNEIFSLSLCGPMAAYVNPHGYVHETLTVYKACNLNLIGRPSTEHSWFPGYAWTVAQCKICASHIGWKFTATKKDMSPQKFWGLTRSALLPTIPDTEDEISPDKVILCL
T1 sequence (Q16531 whole entry partner): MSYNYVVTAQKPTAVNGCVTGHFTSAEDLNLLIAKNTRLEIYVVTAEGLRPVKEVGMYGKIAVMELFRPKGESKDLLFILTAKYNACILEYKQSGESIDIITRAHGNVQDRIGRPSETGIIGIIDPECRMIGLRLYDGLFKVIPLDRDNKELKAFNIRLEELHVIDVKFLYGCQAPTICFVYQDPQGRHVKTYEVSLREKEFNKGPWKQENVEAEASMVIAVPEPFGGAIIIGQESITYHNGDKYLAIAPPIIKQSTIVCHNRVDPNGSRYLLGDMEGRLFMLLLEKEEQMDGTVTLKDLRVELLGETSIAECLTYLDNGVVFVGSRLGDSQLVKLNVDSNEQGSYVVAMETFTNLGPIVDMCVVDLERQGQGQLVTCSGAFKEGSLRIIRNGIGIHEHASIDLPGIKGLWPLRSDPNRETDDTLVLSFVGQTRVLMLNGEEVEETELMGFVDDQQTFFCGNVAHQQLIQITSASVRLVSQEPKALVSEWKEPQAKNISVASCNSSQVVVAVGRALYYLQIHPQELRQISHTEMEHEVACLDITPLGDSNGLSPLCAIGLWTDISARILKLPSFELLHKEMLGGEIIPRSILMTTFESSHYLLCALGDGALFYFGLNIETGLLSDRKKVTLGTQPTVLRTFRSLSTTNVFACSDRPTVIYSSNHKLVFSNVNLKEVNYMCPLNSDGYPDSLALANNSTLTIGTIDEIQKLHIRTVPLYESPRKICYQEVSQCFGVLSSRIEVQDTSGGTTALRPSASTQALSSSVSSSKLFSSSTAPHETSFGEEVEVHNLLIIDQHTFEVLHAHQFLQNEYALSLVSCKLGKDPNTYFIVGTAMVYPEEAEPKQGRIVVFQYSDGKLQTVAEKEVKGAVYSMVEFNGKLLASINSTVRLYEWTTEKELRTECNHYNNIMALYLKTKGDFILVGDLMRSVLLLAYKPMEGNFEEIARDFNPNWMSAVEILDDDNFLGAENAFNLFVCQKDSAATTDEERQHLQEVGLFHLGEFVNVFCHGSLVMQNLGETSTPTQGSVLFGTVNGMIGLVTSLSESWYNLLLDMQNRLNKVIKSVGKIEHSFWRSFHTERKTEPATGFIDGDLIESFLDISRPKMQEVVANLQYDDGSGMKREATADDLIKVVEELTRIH

`N#Cc1ccc(O[C@H]2CC[C@H](NC(=O)c3ccc(N4CCC(CN5CC(n6ccc7c(N8CCC(=O)NC8=O)cccc76)C5)CC4)nn3)CC2)cc1Cl` [EAR131, N-((1r,4r)-4-(3-chloro-4-cyanophenoxy)cyclohexyl)-6-(4-((3-(4-(2,4-dioxotetrahydropyrimidin-1(2H)-yl)-1H-indol-1-yl)azetidin-1-yl)methyl)piperidin-1-yl)pyridazine-3-carboxamide]: the Dmax is not below 50%.

Consider `N#Cc1ccc(O[C@H]2CC[C@H](NC(=O)c3ccc(N4CC5CCC(C4)C5CN4CCC(n5ncc6c(N7CCC(=O)NC7=O)cccc65)CC4)nn3)CC2)cc1Cl` (stereo partly shown) [EAR226, N-((1r,4r)-4-(3-chloro-4-cyanophenoxy)cyclohexyl)-6-(8-((4-(4-(2,4-dioxotetrahydropyrimidin-1(2H)-yl)-1H-indazol-1-yl)piperidin-1-yl)methyl)-3-azabicyclo[3.2.1]octan-3-yl)pyridazine-3-carboxamide], for which the Dmax was not below 50%.

For the molecule `C[C@@H]1CN(C(=O)Nc2ccc(N3CCC(CCN4CCC(n5ncc6c(N7CCC(=O)NC7=O)cccc65)CC4)CC3)nc2)[C@@H](C)CN1c1ccc(C#N)c(Cl)c1` [EAR132, (2S,5R)-4-(3-Chloro-4-cyanophenyl)-N-(6-(4-(2-(4-(4-(2,4-dioxotetrahydropyrimidin-1(2H)-yl)-1H-indazol-1-yl)piperidin-1-yl)ethyl)piperidin-1-yl)pyridin-3-yl)-2,5-dimethylpiperazine-1-carboxamide, formic acid salt], the Dmax is not below 50%.

For the molecule `CN(C)C(=O)c1cc(N2CCC(=O)NC2=O)c2ccn(C3CCN(CC4CCN(c5ccc(C(=O)N[C@H]6CC[C@H](Oc7ccc(C#N)c(Cl)c7)CC6)nn5)CC4)CC3)c2c1` [EAR35, 1-(1-((1-(6-(((1r,4r)-4-(3-Chloro-4-cyanophenoxy)cyclohexyl)carbamoyl)pyridazin-3-yl)piperidin-4-yl)methyl)piperidin-4-yl)-4-(2,4-dioxotetrahydropyrimidin-1(2H)-yl)-N,N-dimethyl-1H-indole-6-carboxamide], the Dmax was not below 50%.

On to `N#Cc1ccc(O[C@H]2CC[C@H](NC(=O)c3ccc(N4CC(CN5CCC(n6ccc7c(N8CCC(=O)NC8=O)cccc76)CC5)C4)nn3)CC2)cc1Cl` [EAR72, N-((1r,4r)-4-(3-Chloro-4-cyanophenoxy)cyclohexyl)-6-(3-((4-(4-(2,4-dioxotetrahydropyrimidin-1(2H)-yl)-1H-indol-1-yl)piperidin-1-yl)methyl)azetidin-1-yl)pyridazine-3-carboxamide hydrochloride], for which the Dmax is not below 50%.

For `CC(C)n1ccc2c(N3CCC(=O)NC3=O)cc(C(=O)N3CCN(c4ccc(C(=O)N[C@H]5CC[C@H](Oc6ccc(C#N)c(Cl)c6)CC5)nn4)CC3)cc21` [EAR77, N-((1r,4r)-4-(3-Chloro-4-cyanophenoxy)cyclohexyl)-6-(4-(4-(2,4-dioxotetrahydropyrimidin-1(2H)-yl)-1-isopropyl-1H-indole-6-carbonyl)piperazin-1-yl)pyridazine-3-carboxamide], the Dmax is not below 50%.

In the case of `CC(C)n1ccc2c(N3CCC(=O)NC3=O)cc(C(=O)N(C)C3CCN(CCCCOc4ccc(C(=O)N[C@H]5CC[C@H](Oc6ccc(C#N)c(Cl)c6)CC5)nc4)CC3)cc21` [EAR64, N-(1-(4-((6-(((1r,4r)-4-(3-Chloro-4-cyanophenoxy)cyclohexyl)carbamoyl)pyridin-3-yl)oxy)butyl)piperidin-4-yl)-4-(2,4-dioxotetrahydropyrimidin-1(2H)-yl)-1-isopropyl-N-methyl-1H-indole-6-carboxamide], the Dmax is not below 50%.

As to `N#Cc1ccc(O[C@H]2CC[C@H](NC(=O)c3ccc(N4CCC(CN5CCC(n6ccc7c(N8CCC(=O)NC8=O)cc(Cl)cc76)CC5)CC4)nn3)CC2)cc1Cl` [EAR32, 6-(4-((4-(6-Chloro-4-(2,4-dioxotetrahydropyrimidin-1(2H)-yl)-1H-indol-1-yl)piperidin-1-yl)methyl)piperidin-1-yl)-N-((1r,4r)-4-(3-chloro-4-cyanophenoxy)cyclohexyl)pyridazine-3-carboxamide hydrochloride], the Dmax is not below 50%.

On to `N#Cc1ccc(O[C@H]2CC[C@H](NC(=O)c3cnc(N4CCC(CN5CCC(n6ncc7c(N8CCC(=O)NC8=O)nccc76)CC5)CC4)cn3)CC2)cc1Cl` [EAR203, N-((1r,4r)-4-(3-Chloro-4-cyanophenoxy)cyclohexyl)-5-(4-((4-(4-(2,4-dioxotetrahydropyrimidin-1(2H)-yl)-1H-pyrazolo[4,3-c]pyridin-1-yl)piperidin-1-yl)methyl)piperidin-1-yl)pyrazine-2-carboxamide hydrochloride], for which the Dmax is not below 50%.

With `N#Cc1ccc(O[C@H]2CC[C@H](NC(=O)c3ccc(N4CCN(CC(=O)N5CCC(n6ncc7c(N8CCC(=O)NC8=O)cccc76)CC5)CC4)nn3)CC2)cc1Cl` [EAR158, N-((1r,4r)-4-(3-Chloro-4-cyanophenoxy)cyclohexyl)-6-(4-(2-(4-(4-(2,4-dioxotetrahydropyrimidin-1(2H)-yl)-1H-indazol-1-yl)piperidin-1-yl)-2-oxoethyl)piperazin-1-yl)pyridazine-3-carboxamide], the Dmax was not below 50%.

For `N#Cc1ccc(O[C@H]2CC[C@H](NC(=O)c3ccc(N4CCC(CN5CCC(CCn6ccc7c(N8CCC(=O)NC8=O)cccc76)CC5)CC4)nn3)CC2)cc1Cl` [EAR179, N-((1r,4r)-4-(3-chloro-4-cyanophenoxy)cyclohexyl)-6-(4-((4-(2-(4-(2,4-dioxotetrahydropyrimidin-1(2H)-yl)-1H-indol-1-yl)ethyl)piperidin-1-yl)methyl)piperidin-1-yl)pyridazine-3-carboxamide hydrochloride], the Dmax is not below 50%.

As to `N#Cc1ccc(O[C@H]2CC[C@H](NC(=O)c3ccc(N4CCC(CN5CCC(n6ccc7c(N8CCC(=O)NC8=O)cncc76)CC5)CC4)nc3)CC2)cc1Cl` [EAR50, N-((1r,4r)-4-(3-Chloro-4-cyanophenoxy)cyclohexyl)-6-(4-((4-(4-(2,4-dioxotetrahydropyrimidin-1(2H)-yl)-1H-pyrrolo[2,3-c]pyridin-1-yl)piperidin-1-yl)methyl)piperidin-1-yl)nicotinamide hydrochloride], the Dmax is not below 50%.

For the molecule `N#Cc1ccc(O[C@H]2CC[C@H](NC(=O)c3ccc(N4CCC5(CC4)CC(CN4CCC(n6ncc7c(N8CCC(=O)NC8=O)cccc76)CC4)C5)nn3)CC2)cc1Cl` [EAR237, N-((1r,4r)-4-(3-chloro-4-cyanophenoxy)cyclohexyl)-6-(2-((4-(4-(2,4-dioxotetrahydropyrimidin-1(2H)-yl)-1H-indazol-1-yl)piperidin-1-yl)methyl)-7-azaspiro[3.5]nonan-7-yl)pyridazine-3-carboxamide], the Dmax was not below 50%.

As to `CN(CCCCCN1CCC(n2ncc3c(N4CCC(=O)NC4=O)cccc32)CC1)c1ccc(C(=O)N[C@H]2CC[C@H](Oc3ccc(C#N)c(Cl)c3)CC2)nn1` [EAR220, N-((1r,4r)-4-(3-chloro-4-cyanophenoxy)cyclohexyl)-6-((5-(4-(4-(2,4-dioxotetrahydropyrimidin-1(2H)-yl)-1H-indazol-1-yl)piperidin-1-yl)pentyl)(methyl)amino)pyridazine-3-carboxamide], the Dmax is not below 50%.

`N#Cc1ccc(O[C@H]2CC[C@H](NC(=O)c3cnc(N4CCC(CN5CCC(n6ncc7c(N8CCC(=O)NC8=O)cncc76)CC5)CC4)nc3)CC2)cc1Cl` [AR216, N-((1r,4r)-4-(3-chloro-4-cyanophenoxy)cyclohexyl)-2-(4-((4-(4-(2,4-dioxotetrahydropyrimidin-1(2H)-yl)-1H-pyrazolo[3,4-c]pyridin-1-yl)piperidin-1-yl)methyl)piperidin-1-yl)pyrimidine-5-carboxamide]: the Dmax is not below 50%.

Take `CC1(C)[C@H](NC(=O)c2ccc(N3CCC(CN4CCC(n5ccc6c(N7CCC(=O)NC7=O)cncc65)CC4)CC3)nn2)C(C)(C)[C@H]1Oc1ccc(C#N)c(Cl)c1` [EAR56, N-((1r,3r)-3-(3-Chloro-4-cyanophenoxy)-2,2,4,4-tetramethylcyclobutyl)-6-(4-((4-(4-(2,4-dioxotetrahydropyrimidin-1(2H)-yl)-1H-pyrrolo[2,3-c]pyridin-1-yl)piperidin-1-yl)methyl)piperidin-1-yl)pyridazine-3-carboxamide]: the Dmax is not below 50%.

For the molecule `N#Cc1ccc(O[C@H]2CC[C@H](NC(=O)c3ccc(N4CCC(CN5CCC(n6ncc7c(N8CCC(=O)NC8=O)cncc76)CC5)CC4)nn3)CC2)cc1Cl` [EAR53, N-((1r,4r)-4-(3-Chloro-4-cyanophenoxy)cyclohexyl)-6-(4-((4-(4-(2,4-dioxotetrahydropyrimidin-1(2H)-yl)-1H-pyrazolo[3,4-c]pyridin-1-yl)piperidin-1-yl)methyl)piperidin-1-yl)pyridazine-3-carboxamide hydrochloride], the Dmax is not below 50%.

Turning to `N#Cc1ccc(O[C@H]2CC[C@H](NC(=O)c3cnc(N4CCC(CN5CCC(n6ccc7c(N8CCC(=O)NC8=O)cccc76)CC5)CC4)cn3)CC2)cc1Cl` [EAR9, N-((1r,4r)-4-(3-Chloro-4-cyanophenoxy)cyclohexyl)-5-(4-((4-(4-(2,4-dioxotetrahydropyrimidin-1(2H)-yl)-1H-indol-1-yl)piperidin-1-yl)methyl)piperidin-1-yl)pyrazine-2-carboxamide], the Dmax is not below 50%.

As for `N#Cc1ccc(O[C@H]2CC[C@H](NC(=O)c3ccc(N4CCC(CN5CCC(n6ncc7c(N8CCC(=O)NC8=O)cc(Cl)cc76)CC5)CC4)nn3)CC2)cc1Cl` [EAR34, 6-(4-((4-(6-Chloro-4-(2,4-dioxotetrahydropyrimidin-1(2H)-yl)-1H-indazol-1-yl)piperidin-1-yl)methyl)piperidin-1-yl)-N-((1r,4r)-4-(3-chloro-4-cyanophenoxy)cyclohexyl)pyridazine-3-carboxamide hydrochloride], the Dmax was not below 50%.
